# Test results as given in a melting point compilation (Tetko et al.; mined from patent text by program, amines drawn as free bases though some values may be those of a salt).
row,SMILES,melting point [°C]
1,Cn1nc2ccc(Cl)nn2c1=O,176 to 177
2,O=C(c1ccc(Nc2ccncc2)cc1)N1CCCCC1,170 to 172
3,COC(=O)c1sc(Cl)c(Cl)c1O,107 to 108
4,CC(C)(C)c1cc2c(c(C(C)(C)C)c1)OC(=O)C2c1ccc(OCC(=O)O)cc1 (configuration not stated),158 to 162
5,CCc1nc(N)nc(N)c1CCCCc1cc(Cl)c(Cl)cc1Cl,158 to 163
6,CCOC(=O)/C=C/c1ccc(OCc2nc(C)c(C)nc2C)c(OC)c1,112
7,CCOC(=O)c1ccc(-c2cc(-c3ccc4c(c3)C(C)(C)CCC4(C)C)ccc2OS(=O)(=O)C(F)(F)F)cc1,110 to 113
8,COCC(OC(C)=O)C1CC(OC(C)=O)C2(C)CCC3C(CCC4CC(=O)CC(C)C43C)C12 (configuration not stated),149 to 150
9,Nc1ncnc2c1ncn2COCCO,200
10,Cc1cccc(NC#N)c1N1CCOCC1,137 to 138
11,CNn1c(SC)nnc(C(C)C2CC2)c1=O (configuration not stated),66 to 68
12,COc1cccc([C@H]2O[C@H](CC(=O)NCCCOc3cccc(C(=O)O)c3)C(=O)N(CC(C)(C)CO)c3ccc(Cl)cc32)c1OC,132 to 134
13,CCCCCCCS(=O)(=O)c1ccc(N)cc1,91 to 92
14,CC(C)=CCOc1ccc2cc(C(C)C(=O)O)ccc2c1 (configuration not stated),97 to 100
15,N#CSCCNc1ccc(Cl)cc1[N+](=O)[O-],154 to 155
16,CCCCS(=O)(=O)N[C@@H](Cc1ccc(NC(=O)NC(=O)c2ccc(C#N)cc2)cc1)C(=O)OC(C)(C)C,171 to 173
17,CN(C(=O)c1ccc(Cl)c(Cl)c1)c1ccc(Cl)cc1CCC(=O)O,159 to 160
18,Cc1cc(-n2c(C)nnc2C)cc2ccc(=O)[nH]c12,308 to 310
19,CCOC(=O)/C=C/c1cc(OCc2cn(-c3ccc(C(F)(F)F)cn3)nc2C)nn1C,173 to 174

row,SMILES,melting point [°C]
1,CCCCC(=N)NC(=O)Nc1ccccc1Cl,132 to 134
2,COC(=O)c1sccc1Oc1ncc(OC)c(OC)n1,107 to 109
3,C=CCC1C=C(c2c[nH]c(-c3ccc(F)cc3)c2-c2ccncc2)CCN1C (configuration not stated),218 to 220
4,CCNC(=O)c1cc(NC)ccc1[Si](C)(C)C,101 to 102
5,COc1cccc(Oc2cccc(NC(=O)c3ccn4c3CSC4c3cccnc3)c2)c1 (configuration not stated),130
6,Cc1ncsc1CCOS(N)(=O)=O,80 to 83
7,CCc1ncnc(N[C@H]2CC[C@@H](CO)CC2)c1Cl,71 to 72
8,NC(=O)OCCn1cc(C(N)=O)c([N+](=O)[O-])n1,191 to 194
9,O=C(Nc1cccc(C(F)(F)F)c1)N1CCCCc2cc(Oc3cc(Cl)ncn3)ccc21,120
10,N#Cc1cc(Br)c(OC(=O)OCOC(=O)c2ccc(Oc3ccc(C(F)(F)F)cc3Cl)cc2[N+](=O)[O-])c(Br)c1,122 to 123
11,CC1(C)OC(=O)C(CO)(c2ccc(Cl)cc2Cl)O1 (configuration not stated),182 to 185
12,COc1cccc(NC(=O)C(N)=O)c1C(N)=O,252 to 255
13,N#Cc1cc2ccccc2[nH]1,94 to 95
14,C[C@]12CC[C@H](O)CC1=CCC1C2CC[C@@]2(C)C1CC[C@@H]2c1c[nH]nn1 (some centres not stated),275 to 277
15,Cc1ccc(C)c2c(=O)n(CCCN3CC=C(c4ccc(Cl)cc4)CC3)c(=O)[nH]c12,212 to 220
16,CCN(CC)C(=O)c1cc[nH]c1C,120 to 121
17,CCOC(=O)c1ccc(S(C)(=O)=O)nc1C(F)(F)F,70 to 72
18,CC(C)c1csc2[nH]c(=O)c(=O)[nH]c12,> 250
19,COC(=O)C(CCc1ccc(C#N)cc1)C(N)=O (configuration not stated),125

row,SMILES,melting point [°C]
1,COc1ccc(C=CC(=O)Nc2ccncc2)c2c1OC1(CCCC1)C2,124 to 128
2,COC(=O)c1ccc(C(=O)NC2CCC(NC(=O)c3ccc(C(=O)OC)cc3)CC2)cc1 (configuration not stated),> 350
3,O=C(NC1CCCCC1)N1C(=O)C2(CCCCC2)NC12CCCCC2,106 to 109
4,CCN(CC)c1ccc(Nc2ncc3ccc(=O)n(CC)c3n2)cc1,108 to 109
5,CCCOC1CC2(C)C(CCC3C2CCC2(C)C(C(=O)CSCCCO)CCC32)CC1O (configuration not stated),133 to 136
6,COC(=O)c1ccc(NS(=O)(=O)c2ccc(F)cc2)cn1,183 to 185
7,CCC1c2c([nH]c(=O)c(O)cc2=O)CC(Cl)C1Cl (configuration not stated),197
8,CC(=O)NC1CCN(c2c(F)cc3c(=O)c(C(=O)O)cn4c3c2CCC4C)CC1 (configuration not stated),274 to 277
9,CCCc1nn(C)c2c(=O)n(CCOc3ccc(OC(C)(C)C(=O)O)cc3)c(CC)nc12,108 to 110
10,Cc1c(C)c2c(c(C)c1N)CC(C)(CN1CCCCC1)O2 (configuration not stated),60 to 61
11,NS(=O)(=O)c1cc2c(s1)CNCC2,172 to 175
12,CCOc1nc(N)nc2c1CCC2,134 to 135
13,CCOc1ccnc(F)c1,35 to 36
14,COc1cc2c(cc1Nc1ncc(Cl)c(Nc3ccccc3S(=O)(=O)N3CCCC3)n1)CCN(CCO)CC2,110
15,COc1cc(C)c2c(c1)OC(C)(C)CC2=O,86 to 88
16,COc1ccc(F)c(CC2CCN([C@H]3CC[C@H](c4ccc5c(c4)OCO5)CC3)CC2)c1,89 to 91
17,CCNC(=S)N(C)c1cn(-c2cccnc2)nc1Cl,160 to 162
18,COc1cc2c(=O)n(CCCO)c3c4ccccc4[nH]c(=O)c3c2cc1OC,313

# Continued, values first:
row,melting point [°C],SMILES
1,150 to 152,O=C1CCC(N2Cc3c(OCc4cccc(CN5CCN(S(=O)(=O)C(F)(F)F)CC5)c4)cccc3C2=O)C(=O)N1 (configuration not stated)
2,235 to 237,CCCc1cccc(CNC(=O)c2nc3scc(COCc4ccc(C(=O)O)cc4)c3c(=O)[nH]2)c1
3,105 to 106,c1ccc(CN2CCN(c3ccnc4ccccc34)CC2)cc1
4,134 to 136,CC(C)(C)C(=O)Oc1nc(-c2ccccc2)sc1-c1ccccc1
5,100 to 103,O=C(CN1C(=O)C2(COc3ccc(Br)cc32)c2ccccc21)Nc1ccccc1F (configuration not stated)
6,104 to 106,CCN(C(=O)C#Cc1ccccc1)c1ccccc1C1CCCCN1C (configuration not stated)
7,100 to 108,CC(=O)c1cnc(-c2ccccc2)nc1-c1ccccc1
8,190 to 192,CC(C(N)=O)c1ccc2c(c1)C(=O)Cc1ccccc1S2 (configuration not stated)
9,179 to 180,C#CCCC(=O)N1c2ccccc2C(=O)Nc2cccnc21
10,151 to 153,Cc1ccncc1C(O)c1ccc2cc(CO)ccc2c1 (configuration not stated)
11,67 to 69,COC(=O)C(Cc1ccccc1)Oc1ccc(-c2ccc(-c3c(Cc4ccccc4)oc4ccccc34)cc2)cc1 (configuration not stated)
12,242 to 246,Cc1cc(C)c(N2c3ccccc3S(=O)(=O)c3ccccc32)c(C)c1
13,202 to 206,Cc1ccc(S(=O)(=O)N2CCC(C#N)(c3ccc(Cl)cc3)CC2)cc1
14,147 to 149,COc1cccc(-c2nn(Cc3ccccc3)c(N)c2C#N)c1
15,72 to 74,COC(=O)CC1Oc2ccccc2Oc2ccccc21 (configuration not stated)
16,206,Cn1c2ccccc2c2cc(NC(=O)c3ccccc3Cl)ccc21
17,96 to 106,CC1CCOC(CBr)(c2ccc(Oc3ccccc3)cc2)O1 (configuration not stated)
18,239 to 240,CCN(CC)C(=O)C1=NN(c2ccccc2)C(C(N)=O)=NN1c1ccccc1
19,285,Nc1cc(C(=O)O)cc(S(N)(=O)=O)c1Sc1ccccc1
20,125 to 126,COc1ccc(CNc2c(Cl)cnn(-c3ccccc3)c2=O)cc1
21,155 to 160,COc1cc2c(cc1-c1nc3cc(-c4ccccc4)ccc3o1)oc1ccccc12
22,244 to 245,CCOC(=O)c1[nH]c2cc(Cl)cc(Cl)c2c1NCS(=O)(=O)c1ccccc1
23,248 to 250,COCc1c(C=O)ncc2[nH]c3cccc(Cc4ccc(Cl)cc4)c3c12

row,melting point [°C],SMILES
1,114 to 115,CC1(C)CC(c2ccccn2)c2cc(C#N)ccc2O1 (configuration not stated)
2,135 to 141,N#Cc1cccc(-c2ccc(O)cc2)c1
3,124 to 126,O=S(=O)(c1ccc2ccccc2c1)N1C[C@H](O)C[C@H]1COCc1ccccc1
4,178 to 179,Cc1ccc(O)c(NCCCN2CCN(C(c3ccccc3)c3ccccc3)CC2)c1
5,134 to 136,Cc1ccc(S(=O)(=O)Nc2ccccc2C#N)cc1
6,208 to 210,Cc1cnc2c3c(nccc13)C(=O)c1ccccc1-2
7,252 to 254,Cc1ccc(C(=O)O)c(Nc2ccc3[nH]ncc3c2)n1
8,129 to 134,O=C1c2ccccc2C(=O)N1CCCCCCN1CCC(c2nc(-c3ccncc3)c(-c3ccc(Cl)c(Cl)c3)[nH]2)CC1
9,146 to 148,Cc1nc(-c2ccccc2)nc(-c2ccc([N+](=O)[O-])cc2)c1C(C)O (configuration not stated)
10,164 to 166,O=C1CC(c2ccccc2)C(c2ccccc2)=NN1C(=O)Nc1ccc(C(F)(F)F)cc1 (configuration not stated)
11,110 to 111,Nc1ccc(Cl)cc1C(=O)c1ccccc1OCc1ccccc1
12,82 to 84,CSC1CC(=O)N1CC(=O)CS(=O)(=O)c1ccccc1 (configuration not stated)
13,190 to 191,CCS(=O)(=O)Nc1nc(CN2CCC(OC(c3ccccc3)c3ccccc3)CC2)cs1
14,112 to 114,CCOC(=O)CCC(=O)[C@H](Cc1ccccc1)NC(=O)c1ccccc1
15,84,CC1C(=O)N(c2ccccc2)C(=S)N1c1ccc(Sc2ccccc2)cc1 (configuration not stated)
16,134 to 136,CCCc1nc2c(N)nc(C)c(C)c2n1CCCCCS(=O)(=O)c1ccccc1
17,216 to 217,Cc1ccc(NC(=O)c2ccc3ncccc3c2)cc1NC(=O)c1cccc(OCCN2CCOCC2)c1
18,182 to 184,COCCOC(=O)Cc1cccc(Nc2nccc(-c3sc(N)nc3C)n2)c1
19,156 to 157,COc1ccc([N+](=O)[O-])cc1C=C1COc2ccc(OCc3ccccc3)cc2C1=O
20,62.1 to 74.1,CSC1CCn2c(CCc3ccccc3)nc3cccc1c32 (configuration not stated)
21,104,CC(C)(C)CC(C)(C)NSc1nc2ccccc2s1
22,171 to 175,CC1=NC(NC(=O)Nc2cccc(C)c2)C(=O)N(CC(=O)C2CCCCCC2)c2c(C)cccc21 (configuration not stated)
23,180,CCCC1=C(C#N)C(c2ccccc2Cl)c2c(n[nH]c2CC(OC)OC)N1 (configuration not stated)
